Assay results: patent publication US7138361B2, “Herbicidal heterocycles” (E. I. du Pont de Nemours and Company, priority 2000, dated 2006)

Columns and labels:
Type in all cases: in vivo
[1] = test system: Surinam grass (Brachiaria decumbens); experiment: Test B postemergence
Summary of the method: (§1)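 Preemergence: seeds planted and treated with test chemicals in non-phytotoxic solvent with surfactant; postemergence on plants 2–18 cm (1- to 4-leaf stage). Kept in greenhouse 13–15 days, then visually rated against controls on a 0 (no effect) to 100 (complete control) scale.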

[2] = test system: barnyardgrass (Echinochloa crus-galli); experiment: Test B postemergence
Summary of the method: as §1

[3] = test system: blackgrass (Alopecurus myosuroides); experiment: Test B postemergence
Summary of the method: as §1

[4] = test system: cocklebur (Xanthium strumarium); experiment: Test B postemergence
Summary of the method: as §1

[5] = test system: corn (Zea mays); experiment: Test B postemergence
Summary of the method: as §1

[6] = test system: crabgrass (Digitaria sanguinalis); experiment: Test B postemergence; settings: Rate 125 g/ha, scale 0 to 100, 0 no effect, 100 complete control
Summary of the method: as §1

[7] = test system: giant foxtail (Setaria faberii); experiment: Test B postemergence; settings: Rate 125 g/ha, scale 0 to 100, 0 no effect, 100 complete control
Summary of the method: as §1

[8] = test system: lambsquarters (Chenopodium album); experiment: Test B postemergence; settings: Rate 125 g/ha, scale 0 to 100, 0 no effect, 100 complete control
Summary of the method: as §1

[9] = test system: morning glory (Ipomoea hederacea); experiment: Test B postemergence; settings: Rate 125 g/ha, scale 0 to 100, 0 no effect, 100 complete control
Summary of the method: as §1

[10] = test system: pigweed (Amaranthus retroflexus); experiment: Test B postemergence; settings: Rate 125 g/ha, scale 0 to 100, 0 no effect, 100 complete control
Summary of the method: as §1

[11] = test system: velvetleaf (Abutilon theophrasti); experiment: Test B postemergence; settings: Rate 125 g/ha, scale 0 to 100, 0 no effect, 100 complete control
Summary of the method: as §1

[12] = test system: wheat (Triticum aestivum); experiment: Test B postemergence; settings: Rate 125 g/ha, scale 0 to 100, 0 no effect, 100 complete control
Summary of the method: as §1

[13] = test system: wild oat (Avena fatua); experiment: Test B postemergence; settings: Rate 125 g/ha, scale 0 to 100, 0 no effect, 100 complete control
Summary of the method: as §1

[14] = test system: Surinam grass (Brachiaria decumbens); experiment: Test B preemergence
Summary of the method: as §1

[15] = test system: barnyardgrass (Echinochloa crus-galli); experiment: Test B preemergence
Summary of the method: as §1

[16] = test system: cocklebur (Xanthium strumarium); experiment: Test B preemergence
Summary of the method: as §1

[17] = test system: corn (Zea mays); experiment: Test B preemergence
Summary of the method: as §1

[18] = test system: crabgrass (Digitaria sanguinalis); experiment: Test B preemergence
Summary of the method: as §1

[19] = test system: giant foxtail (Setaria faberii); experiment: Test B preemergence
Summary of the method: as §1

[20] = test system: lambsquarters (Chenopodium album); experiment: Test B preemergence
Summary of the method: as §1

[21] = test system: morning glory (Ipomoea hederacea); experiment: Test B preemergence
Summary of the method: as §1

[22] = test system: pigweed (Amaranthus retroflexus); experiment: Test B preemergence
Summary of the method: as §1

[23] = test system: rice (Oryza saliva); experiment: Test B preemergence
Summary of the method: as §1

[24] = test system: velvetleaf (Abutilon theophrasti); experiment: Test B preemergence
Summary of the method: as §1

[25] = test system: barnyardgrass (Echinochloa crus-galli); experiment: Test C flooded paddy test; settings: for Barnyardgrass plant response rating: Flooded Paddy, scale 0 to 100, 0 no effect, 100 complete control; for Plant response rating, Barnyardgrass: flooded paddy test, scale 0 to 100 (0 no effect, 100 complete control)
Summary of the method: (§2)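 Flooded paddy, 2-leaf stage at treatment. Readout: visual % control vs untreated, 0–100, at 12–14 d in greenhouse.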

[26] = test system: duck salad (Heteranthera limosa); experiment: Test C flooded paddy test; settings: for Ducksalad plant response rating: Flooded Paddy, scale 0 to 100, 0 no effect, 100 complete control; for Plant response rating, Ducksalad: flooded paddy test, scale 0 to 100 (0 no effect, 100 complete control)
Summary of the method: as §2

[27] = test system: Sunflower; experiment: Test C preemergence; settings: Rate 500 g/ha, visual evaluation after 12 to 14 days
[28] = Rate 125 g/ha, scale 0 to 100, 0 no effect, 100 complete control
[29] = Rate 500 g/ha, scale 0 to 100, 0 is no effect, 100 is complete control, 13 to 15 days
[30] = Preemergence, Rate 500 g/ha, scale 0 to 100, 0 no effect, 100 complete control
[31] = preemergence, Rate 125 g/ha, scale of 0 to 100 where 0 is no effect and 100 is complete control, 13 to 15 days

## COc1cc(N2CCC(n3ccc(C(C)(C)C)n3)C2=O)ccc1Cl (centres unmarked) [Compound 117]
[1]; [28]
  Plant response rating, Surinam grass: 30
[1]; [29]
  Plant response rating, Surinam grass: 40
[2]; [28]
  Plant response rating, Barnyardgrass: 40
[2]; [29]
  Plant response rating, Barnyardgrass: 90
[3]; [28]
  Plant response rating, Blackgrass: 0
[3]; [29]
  Plant response rating, Blackgrass: 0
[4]; [28]
  Plant response rating, Cocklebur: 90
[4]; [29]
  Plant response rating, Cocklebur: 100
[5]; [28]
  Plant response rating, Corn: 0
[5]; [29]
  Plant response rating, Corn: 0
[6]
  Plant response rating, Crabgrass: 30
[7]
  Plant response rating, Foxtail, Giant: 0
[8]
  Plant response rating, Lambsquarters: 90
[9]
  Plant response rating, Morningglory: 70
[10]
  Plant response rating, Pigweed: 80
[11]
  Plant response rating, Velvetleaf: 70
[12]
  Plant response rating, Wheat: 30
[13]
  Plant response rating, Wild Oat: 40
[14]; [30]
  Plant response rating, Surinam grass: 100
[14]; [31]
  Plant response rating, Surinam grass: 100
[15]; [30]
  Plant response rating, Barnyardgrass: 100
[15]; [31]
  Plant response rating, Barnyardgrass: 100
[16]; [30]
  Plant response rating, Cocklebur: 100
[16]; [31]
  Plant response rating, Cocklebur: 70
[17]; [30]
  Plant response rating, Corn: 30
[17]; [31]
  Plant response rating, Corn: 20
[18]; [30]
  Plant response rating, Crabgrass: 100
[18]; [31]
  Plant response rating, Crabgrass: 100
[19]; [30]
  Plant response rating, Foxtail, Giant: 100
[19]; [31]
  Plant response rating, Foxtail, Giant: 100
[20]; [30]
  Plant response rating, Lambsquarters: 100
[20]; [31]
  Plant response rating, Lambsquarters: 100
[21]; [30]
  Plant response rating, Morningglory: 100
[21]; [31]
  Plant response rating, Morningglory: 80
[22]; [30]
  Plant response rating, Pigweed: 100
[22]; [31]
  Plant response rating, Pigweed: 100
[23]; [30]
  Plant response rating, Rice: 70
[23]; [31]
  Plant response rating, Rice: 0
[24]; [30]
  Plant response rating, Velvetleaf: 100
[24]; [31]
  Plant response rating, Velvetleaf: 40
[25]; Rate 250 g/ha
  Barnyardgrass plant response rating: 90
[25]; Rate 500 g/ha
  Barnyardgrass plant response rating: 90
[25]; Rate 62 g/ha
  Plant response rating, Barnyardgrass: 40
[25]; Rate 125 g/ha
  Plant response rating, Barnyardgrass: 80
[26]; Rate 250 g/ha
  Ducksalad plant response rating: 100
[26]; Rate 500 g/ha
  Ducksalad plant response rating: 100
[26]; Rate 62 g/ha
  Plant response rating, Ducksalad: 0
[26]; Rate 125 g/ha
  Plant response rating, Ducksalad: 100
[27]
  Plant response rating (0 to 100), Sunflower: 65

## CCC(CC)c1ccn(C2CCN(c3ccc(Cl)c(OC)c3)C2=O)n1 (centres unmarked) [Compound 118]
[1]; [28]
  Plant response rating, Surinam grass: 30
[1]; [29]
  Plant response rating, Surinam grass: 40
[2]; [28]
  Plant response rating, Barnyardgrass: 0
[2]; [29]
  Plant response rating, Barnyardgrass: 90
[3]; [28]
  Plant response rating, Blackgrass: 0
[3]; [29]
  Plant response rating, Blackgrass: 0
[4]; [28]
  Plant response rating, Cocklebur: 60
[4]; [29]
  Plant response rating, Cocklebur: 100
[5]; [28]
  Plant response rating, Corn: 20
[5]; [29]
  Plant response rating, Corn: 20
[6]
  Plant response rating, Crabgrass: 40
[7]
  Plant response rating, Foxtail, Giant: 0
[8]
  Plant response rating, Lambsquarters: 90
[9]
  Plant response rating, Morningglory: 40
[10]
  Plant response rating, Pigweed: 70
[11]
  Plant response rating, Velvetleaf: 40
[12]
  Plant response rating, Wheat: 20
[13]
  Plant response rating, Wild Oat: 30
[14]; [30]
  Plant response rating, Surinam grass: 90
[14]; [31]
  Plant response rating, Surinam grass: 0
[15]; [30]
  Plant response rating, Barnyardgrass: 100
[15]; [31]
  Plant response rating, Barnyardgrass: 100
[16]; [30]
  Plant response rating, Cocklebur: 0
[16]; [31]
  Plant response rating, Cocklebur: 0
[17]; [30]
  Plant response rating, Corn: 30
[17]; [31]
  Plant response rating, Corn: 30
[18]; [30]
  Plant response rating, Crabgrass: 100
[18]; [31]
  Plant response rating, Crabgrass: 100
[19]; [30]
  Plant response rating, Foxtail, Giant: 100
[19]; [31]
  Plant response rating, Foxtail, Giant: 40
[20]; [30]
  Plant response rating, Lambsquarters: 100
[20]; [31]
  Plant response rating, Lambsquarters: 100
[21]; [30]
  Plant response rating, Morningglory: 100
[21]; [31]
  Plant response rating, Morningglory: 40
[22]; [30]
  Plant response rating, Pigweed: 100
[22]; [31]
  Plant response rating, Pigweed: 100
[23]; [30]
  Plant response rating, Rice: 0
[23]; [31]
  Plant response rating, Rice: 0
[24]; [30]
  Plant response rating, Velvetleaf: 90
[24]; [31]
  Plant response rating, Velvetleaf: 20
[25]; Rate 250 g/ha
  Barnyardgrass plant response rating: 100
[25]; Rate 500 g/ha
  Barnyardgrass plant response rating: 100
[25]; Rate 62 g/ha
  Plant response rating, Barnyardgrass: 50
[25]; Rate 125 g/ha
  Plant response rating, Barnyardgrass: 60
[26]; Rate 250 g/ha
  Ducksalad plant response rating: 100
[26]; Rate 500 g/ha
  Ducksalad plant response rating: 100
[26]; Rate 125 g/ha
  Plant response rating, Ducksalad: 60
[27]
  Plant response rating (0 to 100), Sunflower: 70

## CCC(C)c1ccn(C2CCN(c3ccc(Cl)c(OC)c3)C2=O)n1 (centres unmarked) [Compound 119]
[1]; [28]
  Plant response rating, Surinam grass: 20
[1]; [29]
  Plant response rating, Surinam grass: 50
[2]; [28]
  Plant response rating, Barnyardgrass: 30
[2]; [29]
  Plant response rating, Barnyardgrass: 100
[3]; [28]
  Plant response rating, Blackgrass: 0
[3]; [29]
  Plant response rating, Blackgrass: 0
[4]; [28]
  Plant response rating, Cocklebur: 90
[4]; [29]
  Plant response rating, Cocklebur: 100
[5]; [28]
  Plant response rating, Corn: 0
[5]; [29]
  Plant response rating, Corn: 0
[6]
  Plant response rating, Crabgrass: 40
[7]
  Plant response rating, Foxtail, Giant: 0
[8]
  Plant response rating, Lambsquarters: 90
[9]
  Plant response rating, Morningglory: 30
[10]
  Plant response rating, Pigweed: 60
[11]
  Plant response rating, Velvetleaf: 30
[12]
  Plant response rating, Wheat: 20
[13]
  Plant response rating, Wild Oat: 0
[14]; [30]
  Plant response rating, Surinam grass: 100
[14]; [31]
  Plant response rating, Surinam grass: 100
[15]; [30]
  Plant response rating, Barnyardgrass: 100
[15]; [31]
  Plant response rating, Barnyardgrass: 100
[16]; [30]
  Plant response rating, Cocklebur: 30
[16]; [31]
  Plant response rating, Cocklebur: 30
[17]; [30]
  Plant response rating, Corn: 40
[17]; [31]
  Plant response rating, Corn: 0
[18]; [30]
  Plant response rating, Crabgrass: 100
[18]; [31]
  Plant response rating, Crabgrass: 100
[19]; [30]
  Plant response rating, Foxtail, Giant: 100
[19]; [31]
  Plant response rating, Foxtail, Giant: 100
[20]; [30]
  Plant response rating, Lambsquarters: 100
[20]; [31]
  Plant response rating, Lambsquarters: 100
[21]; [30]
  Plant response rating, Morningglory: 70
[21]; [31]
  Plant response rating, Morningglory: 50
[22]; [30]
  Plant response rating, Pigweed: 100
[22]; [31]
  Plant response rating, Pigweed: 100
[23]; [30]
  Plant response rating, Rice: 20
[23]; [31]
  Plant response rating, Rice: 10
[24]; [30]
  Plant response rating, Velvetleaf: 70
[24]; [31]
  Plant response rating, Velvetleaf: 30
[25]; Rate 250 g/ha
  Barnyardgrass plant response rating: 70
[25]; Rate 500 g/ha
  Barnyardgrass plant response rating: 80
[25]; Rate 62 g/ha
  Plant response rating, Barnyardgrass: 30
[25]; Rate 125 g/ha
  Plant response rating, Barnyardgrass: 70
[26]; Rate 250 g/ha
  Ducksalad plant response rating: 90
[26]; Rate 500 g/ha
  Ducksalad plant response rating: 100
[26]; Rate 62 g/ha
  Plant response rating, Ducksalad: 0
[26]; Rate 125 g/ha
  Plant response rating, Ducksalad: 20
[27]
  Plant response rating (0 to 100), Sunflower: 100
